Assay results published in ChEMBL document CHEMBL3046461, “Synthesis and herbicidal activity of sulfonanilides having a pyrimidinyl-containing group at the 2-position” (J Pestic Sci, 2011).

What was measured:
[1] = test system: Schoenoplectiella juncoides; experiment: Herbicidal activity against Schoenoplectiella juncoides subsp. Hotarui (Ohwi) T. Koyama assessed as induction of crop damage after 28 days post compound application; assay type: functional
Oryza sativa = experiment: Phytotoxicity against two-leaf stage paddy Oryza sativa (rice) seedlings assessed as induction of crop damage after 28 days post compound application; assay type: organism-based; conditions: in vivo, 672 h
Pontederia vaginalis = experiment: Herbicidal activity against Monochoria vaginalis assessed as induction of crop damage after 28 days post compound application; assay type: functional
Echinochloa oryzicola = experiment: Herbicidal activity against Echinochloa oryzicola assessed as induction of crop damage after 28 days post compound application; assay type: functional

SMILES | ED90 [1] [gAi/ha] | ED20 (Oryza sativa) [gAi/ha] | ED90 (Pontederia vaginalis) [gAi/ha] | ED20 (Echinochloa oryzicola) [gAi/ha]
COCc1cccc(C(O)c2nc(OC)cc(OC)n2)c1NS(=O)(=O)C(F)F (stereo unspecified) | 4 | 63 | 4 | 16
CCOc1cccc(C(O)c2nc(OC)cc(OC)n2)c1NS(=O)(=O)C(F)F (stereo unspecified) | 16 | 16 | 16 | 63
CCCOc1cccc(C(O)c2nc(OC)cc(OC)n2)c1NS(=O)(=O)C(F)F (stereo unspecified) | 250 | 63 | 63 | 250
COc1cc(OC)nc(C(O)c2cccc(Oc3ccccc3)c2NS(=O)(=O)C(F)F)n1 (stereo unspecified) | >1000 | 1000 | 250 | >1000
COc1cc(OC)nc(C(O)c2cccc(SC)c2NS(=O)(=O)C(F)F)n1 (stereo unspecified) | 63 | 63 | 63 | 250
CCSC(c1nc(OC)cc(OC)n1)c1ccccc1NS(=O)(=O)C(F)(F)F (stereo unspecified) | 4 | 63 | 16 | 1000
CC[S+]([O-])C(c1nc(OC)cc(OC)n1)c1ccccc1NS(=O)(=O)C(F)(F)F (stereo unspecified) | 63 | 1000 | 1000 | >1000
CCS(=O)(=O)C(c1nc(OC)cc(OC)n1)c1ccccc1NS(=O)(=O)C(F)(F)F (stereo unspecified) | 250 | 1000 | 250 | >1000
COc1cc(OC)nc(C(O)c2c(F)cccc2NS(=O)(=O)C(F)F)n1 (stereo unspecified) | 16 | 16 | 16 | 63
COc1cc(OC)nc(C(O)c2c(Cl)cccc2NS(=O)(=O)C(F)F)n1 (stereo unspecified) | 250 | 1000 | 64 | >1000
COc1cc(OC)nc(C(O)c2cc(Cl)ccc2NS(=O)(=O)C(F)F)n1 (stereo unspecified) | >1000 | 1000 | 1000 | >1000
COc1ccc(NS(=O)(=O)C(F)F)c(C(O)c2nc(OC)cc(OC)n2)c1 (stereo unspecified) | >1000 | 63 | 250 | >1000
COc1cc(OC)nc(C(O)c2ccc(Cl)cc2NS(=O)(=O)C(F)F)n1 (stereo unspecified) | 63 | 63 | 63 | 250
COc1cc(OC)nc(C(O)c2ccc(C)cc2NS(=O)(=O)C(F)F)n1 (stereo unspecified) | 16 | 16 | 16 | 1000
COc1ccc(C(O)c2nc(OC)cc(OC)n2)c(NS(=O)(=O)C(F)F)c1 (stereo unspecified) | 63 | 16 | 16 | 16
COc1cc(OC)nc(C(O)c2cccc(F)c2NS(=O)(=O)C(F)F)n1 (stereo unspecified) | 4 | 16 | 4 | 250
COc1cc(OC)nc(C(O)c2cccc(C)c2NS(=O)(=O)C(F)F)n1 (stereo unspecified) | 16 | 16 | 4 | 16
COc1cc(OC)nc(C(O)c2cccc(OC)c2NS(=O)(=O)C(F)F)n1 (stereo unspecified) | 63 | 4 | 16 | 16
CCc1cccc(C(O)c2nc(OC)cc(OC)n2)c1NS(=O)(=O)C(F)F (stereo unspecified) | 4 | 63 | 16 | 16
CCCc1cccc(C(O)c2nc(OC)cc(OC)n2)c1NS(=O)(=O)C(F)F (stereo unspecified) | 63 | 63 | 16 | 16

SMILES | ED90 [1] [gAi/ha] | ED20 (Oryza sativa) [gAi/ha] | ED90 (Pontederia vaginalis) [gAi/ha] | ED20 (Echinochloa oryzicola) [gAi/ha]
COc1cc(OC)nc(C(O)c2ccccc2NS(=O)(=O)CF)n1 (stereo unspecified) | 16 | 63 | 16 | 63
COc1cc(OC)nc(C(O)c2ccccc2NS(=O)(=O)CCl)n1 (stereo unspecified) | 63 | 250 | 16 | 1000
COc1cc(OC)nc(C(O)c2ccccc2NS(=O)(=O)CC#N)n1 (stereo unspecified) | 250 | 250 | 63 | 1000
COc1cc(OC)nc(C(O)c2ccccc2NS(=O)(=O)C/C=C/Cl)n1 (stereo unspecified) | 1000 | 250 | 250 | >1000
COc1cc(OC)nc(C(O)c2ccccc2NS(C)(=O)=O)n1 (stereo unspecified) | >1000 | 63 | 250 | 1000
CCS(=O)(=O)Nc1ccccc1C(O)c1nc(OC)cc(OC)n1 (stereo unspecified) | >1000 | 1000 | 1000 | 1000
COc1cc(OC)nc(C(O)c2ccccc2NS(=O)(=O)C(C)C)n1 (stereo unspecified) | >1000 | 1000 | 1000 | >1000
COc1cc(OC)nc(C(O)c2ccccc2NS(=O)(=O)c2ccccc2)n1 (stereo unspecified) | >1000 | 1000 | 1000 | >1000
COc1cc(OC)nc(C(O)c2ccccc2NS(N)(=O)=O)n1 (stereo unspecified) | >1000 | 250 | 1000 | 1000
COc1cc(OC)nc(C(=O)c2ccccc2NS(=O)(=O)C(F)(F)F)n1 | 16 | 63 | 16 | 1000
COc1cc(OC)nc(C(OC)c2ccccc2NS(=O)(=O)C(F)(F)F)n1 (stereo unspecified) | 63 | 63 | 16 | 63
COc1cc(OC)nc(C(O[Si](C)(C)C)c2ccccc2NS(=O)(=O)C(F)(F)F)n1 (stereo unspecified) | 4 | 63 | 4 | 1000
COc1cc(OC)nc(C(OC(C)=O)c2ccccc2NS(=O)(=O)C(F)(F)F)n1 (stereo unspecified) | 4 | 63 | 16 | >1000
C/C=N/OC(c1nc(OC)cc(OC)n1)c1ccccc1NS(=O)(=O)C(F)(F)F (stereo unspecified) | 16 | 63 | 63 | 1000
COc1cc(OC)nc(C(Cl)c2ccccc2NS(=O)(=O)C(F)(F)F)n1 (stereo unspecified) | 4 | 63 | 16 | 1000
COc1cc(OC)nc(C(c2ccccc2NS(=O)(=O)C(F)(F)F)N(C)C)n1 (stereo unspecified) | 16 | 250 | 63 | >1000
COc1cc(OC)nc(C(S)c2ccccc2NS(=O)(=O)C(F)(F)F)n1 (stereo unspecified) | 63 | 250 | 63 | >1000
COc1cc(OC)nc(C(O)c2ccccc2NS(=O)(=O)C(F)(F)F)n1 (stereo unspecified) | 4 | 63 | 4 | 1000
COc1cc(OC)nc(C(O)c2ccccc2NS(=O)(=O)C(F)F)n1 (stereo unspecified) | 16 | 63 | 4 | 250
